Consider 6 compounds from patent US11945807B2, “Splicing modulator antibody-drug conjugates and methods of use” (EISAI R&D MANAGEMENT CO., LTD., priority 2018, dated 2024).

Where two headings read alike, the source gives them in different places.

Data set [1] deals with T1, SF3b complex (Homo sapiens, UniProt O75533+Q7RTV0).
T1 construct: The beads were suspended and added to the prepared nuclear extracts; endogenous in cells; host or cells: nuclear extracts
The experiment in a line: SF3B1 binding / scintillation proximity assay (SPA). On the technique in general: Scintillation proximity formats need no separation of bound from free tracer.
Method: A scintillation proximity assay was performed to measure the binding affinity of compounds (“payloads”) to the SF3b complex. Batch immobilization of anti-SF3B1 antibody (MBL) to anti-mouse PVT SPA scintillation beads (PerkinElmer) was prepared as follows: for every 2.5 mg of nuclear extracts, 5 μg of anti-SF3B1 antibody and 1.5 mg of beads were mixed in 150 μL PBS. The antibody-bead mixture was incubated for 30 min at RT and centrifuged at 18,000 g for 5 min. 150 μL PBS was used to resuspend every 1.5 mg antibody-bead mixture. The beads were suspended and added to the prepared nuclear extracts. The slurry was incubated for 2 hours at 4° C. with gentle mixing. The beads were then collected by centrifuging at 18,000 g for 5 min, and washed twice with PBS+0.1% Triton X-100. After a final centrifugation step, every 1.5 mg of beads was suspended with 150 μL of PBS. […] The mixture was incubated for 30 min, and luminescence signals were read using a MicroBeta2 Plate Counter (PerkinElmer). Prism 7 (Graphpad) was used for non-linear regression curve fitting of the data.

Data set [2] deals with N87 cells. The experiment in a line: Cell viability CellTiter-Glo, N87. The settings on record: unconjugated payload of the ADC; for GI50: Homo sapiens. It is filed as cell-based, human. For orientation: In ATP-based viability assays light output follows the ATP content of the culture.
Method: (§1) HCC1954 (American Type Culture Collection (ATCC)) breast ductal carcinoma cells were plated at 2000 cells/well in flat bottom 96-well tissue culture plates (Corning) in a total volume of 90 μL tissue culture medium supplemented with 10% fetal bovine serum (ThermoFisher Scientific). Cells were treated with a 3-fold serial dilution of compound from 200 nM to 0.03 nM. Each concentration was tested in triplicate. At the time of treatment, a plate of untreated cells was evaluated using CellTiter-Glo®2.0 Luminescent Cell Viability Assay according to the manufacturers recommendations (Promega; #G9241). CellTiter-Glo® 2.0 reagent was added to the medium, incubated, and assayed on an EnVision Multilabel Reader (PerkinElmer). Values represent time zero (T0). […] Percentage growth inhibition was calculated as: [(T144−T0)/(C−T0)]×100 for concentrations for which T144>/=T0 or [(T144−T0)/T0]×100 for concentrations for which T144<T0. The dose response curve plots were generated using Prism 7 (Graphpad) and fit using nonlinear regression analysis and the log(inhibitor) versus response-variable slope (four parameters).
(§2) HCC1954 (ATCC), 2000 cells/well), N87 (ATCC, 4000 cells/well), SKBR3 (ATCC, 3000 cells/well), and MCF7 (ATCC, 1500 cells/well) cell lines were used.
The subject of data set [3] is MCF7 cells. Briefly: Cell viability CellTiter-Glo, MCF7 (HER2-negative). It is filed as cell-based. The settings on record: Homo sapiens, unconjugated payload of the ADC.
Method: as §1, §2
Data set [4] relates to THP1.1. Briefly: Payload cell potency and lethality CTGlo 72 h, THP1.1. The settings on record: for GI50: read-out: CTGlo-ATS GMean GI50 (nM) 72 h THP1.1, cell line #3, 72 h, corresponding free payload; for CTGlo-AT S Mean Min-Response % 72 h THP1.1: unconjugated payload. It is filed as cell-based.
Data set [5] is described as follows: Caco-2 permeability of ADC payload. Format: in vitro ADME. The settings on record: human; for Papp B→A at 2 h, 10 NM: basolateral to apical, read-out: Permeability Mean Caco-2 B-A Perm (10e−G cm/s). On the technique in general: Caco-2 monolayers are a common model of the intestinal barrier.
Method: (§3) Integrity of cell monolayer was confirmed by TEER (transepithelial electrical resistance) and Lucifer yellow. Payloads were spiked in duplicate at 10 NM, separately, on both sides of the cell monolayer. Permeability rates from the apical to basolateral (A-B) direction and the basolateral to apical (B-A) direction were determined by sampling aliquots from both chambers immediately after treatment (t=0) and following incubation for 2 hours. Samples were protein precipitated with organic solvent containing internal standard and analyzed by LC-MS/MS (SCIEX; API 5500). The area ratio responses of payload/internal standard over time in both directions were used to generate permeability (cm/sec) values.
For data set [6], the system named is Caco-2 cells. Briefly: Caco-2 permeability of ADC payload. It is filed as in vitro ADME. The settings on record: corresponding free payload.
Method: as §3
Data set [7] in a line: Chemical stability of ADC payload, pH 5.5 buffer. Format: physicochemical. The settings on record: for half-life at 20 μM: McIlvaine (citrate-phosphate) buffer, unconjugated payload, Citrate-Phosphate buffer pH 5.5, 37° C., read-out: Stability Mean Stability t1/2 pH5.5 (converted); for pH 5.5 Stability (t1/2, 37 C.): pH 5.5, 37 C., corresponding payload. The text has this:
(Eppendorf ThermoMixer). […] Time 0 was set to 100.

Data set [8] relates to PC3 cells. Briefly: Cell viability CellTiter-Glo, PC3 (EPHA2-expressing). Format: cell-based. The settings on record: for GI50: Homo sapiens, PC-3, free payload of the ADC; for Payload Rmin (%): free payload of the ADC.
Method: as §1
(§4) Anti-CD138 ADCs were tested in the CD138-expressing MOLP8 multiple myeloma cell line. Similarly, anti-EPHA2 ADCs were tested in the EPHA2-expressing PC3 prostate cancer cell line.
For data set [9], the system named is NCIH1650.1. Briefly: Payload cellular potency CTGlo-ATS 72 h, NCIH1650.1. The following applies: cell line #1, 72 h, corresponding free payload; for GI50: read-out: CTGlo-ATS GMean GI50 (nM) 72 h NCIH1650.1. It is filed as cell-based.
Data set [10] concerns NCIH1568.1. Briefly: Payload cellular potency CTGlo-ATS 72 h, NCIH1568.1. It is filed as cell-based. The settings on record: cell line #2, 72 h, corresponding free payload; for GI50: read-out: CTGlo-ATS GMean GI50 (nM) 72 h NCIH1568.1.
Data set [11] relates to HCC1954 cells. The experiment in a line: Cell viability CellTiter-Glo, HCC1954. The settings on record: Homo sapiens, HCC1954, read-out: Payload GI50 (nM).
Data set [12] concerns MOLP8 cells. Briefly: Cell viability CellTiter-Glo, MOLP8 (CD138-expressing). It is filed as cell-based. The settings on record: for GI50: Homo sapiens, MOLP-8, unconjugated payload of the ADC in the row, read-out: Payload GI50.
Method: as §1, §4
Where [13] appears, read: unconjugated payload, [3H]-pladienolide B probe displacement, read-out: SPA-AT S GMean IC50 (nM) SF381 (WT) HELA.2.
Setting [14] is: Caco-2, unconjugated payload, apical to basolateral, 2 hours, read-out: Permeability Mean Caco-2 A-B Perm (10e−6 cm/s).
Where [15] appears, read: Caco-2, unconjugated payload, 2 hours.
[16] abbreviates: Caco-2, A-B, corresponding payload (Table 26), read-out: Permeability Caco-2 A-B (10e−6 cm/s).

One may read the IC50 as the concentration that inhibits the measured activity by half. The term GI50 denotes the concentration that inhibits growth by half. Regarding `CC[C@H](O)[C@@H](C)C1OC1C[C@@](C)(O)/C=C/C=C(\C)[C@H]1OC(=O)C[C@H](O)CC[C@@](C)(OC)[C@@H](OC(=O)N2CCNCC2)/C=C/[C@@H]1C` (stereo in doubt) [D1, (2S,3S,6S,7R,10R,E)-10-hydroxy-2-((R,2E,4E)-6-hydroxy-7-((2S,3S)-3-((2R,3S)-3-hydroxypentan-2-yl)oxiran-2-yl)-6-methylhepta-2,4-dien-2-yl)-7-methoxy-3,7-dimethyl-12-oxooxacyclododec-4-en-6-yl piperazine-1-carboxylate], the IC50 came out at 6.08 nM in data set [1] (target binding, corresponding free payload, read-out: SPA-ATS GMean IC50 (nM) SF3B1 (WT) HELA.2) and 6.08 nM in data set [1] (setting [13]). For the same compound, the GI50 is 7.04 nM in data set [2]; 17 nM in data set [3]; 11.1 nM in [4]; 13.3 nM in [8]; 12.1 nM in data set [9]; 7.36 nM in data set [10]. In [11], the GI50 was found to be 1.85 nM. The “Payload Rmin (%)” value in data set [2] is −40.041%; in [8] it was −71.987%. The “CTGlo-AT S Mean Min-Response % 72 h THP1.1” value in data set [4] is listed as −100.615%. Also, the Papp A→B at 2 h, 10 NM in data set [5] (setting [14]) came to 0.14 ×10⁻⁶ cm/s. Further, in [5] (setting [15]), the Papp B→A at 2 h, 10 NM was found to be 2.05 ×10⁻⁶ cm/s. Further, in data set [6], the “Perm. Mean Caco 2 A-B Perm (10e−6 cm/s)” value is given as 0.14 10e−6 cm/s. Also, the “Perm. Mean Caco 2 B-A Perm (10e−6 cm/s)” value in data set [6] is 2.05 10e−6 cm/s. Moreover, the half-life at 20 μM in data set [7] was 94.8 h. Besides, the “CTGlo-ATS GMean LD50 (nM) 72 h NCIH1650.1” value in data set [9] is listed as more than 10000.00 nM. Also, in data set [10], the “CTGlo-ATS GMean LD50 (nM) 72 h NCIH1568.1” value worked out at 65.737 nM.
Regarding `CC[C@H](O)[C@@H](C)C1OC1C[C@@](C)(O)/C=C/C=C(\C)[C@H]1OC(=O)C[C@H](O)CC[C@@](C)(OC(C)=O)[C@@H](OC(=O)N2CCNCC2)/C=C/[C@@H]1C` (stereo in doubt) [D4, (2S,3S,6S,7R,10R,E)-7-acetoxy-10-hydroxy-2-((R,2E,4E)-6-hydroxy-7-((2S,3S)-3-((2R,3S)-3-hydroxypentan-2-yl)oxiran-2-yl)-6-methylhepta-2,4-dien-2-yl)-3,7-dimethyl-12-oxooxacyclododec-4-en-6-yl piperazine-1-carboxylate], the GI50 in [2] stood at 3.24 nM; in data set [3], 11.4 nM; in data set [4] it was 10.9 nM; in data set [12], 1.15 nM; in data set [8], 11.1 nM; in data set [9], 11.9 nM. The results for the GI50 in data set [10] and in [11] were 6.37 nM and 1.7 nM, respectively. The “Payload Rmin (%)” value in data set [2] is reported as −81.775%; in data set [8], −55.97%. For the same compound, the “CTGlo-AT S Mean Min-Response % 72 h THP1.1” value in data set [4] was −99.957%. For the same compound, the Papp A→B at 2 h, 10 NM in data set [5] (setting [16]) and in data set [5] (setting [14]) was 0.1 ×10⁻⁶ cm/s in each case. The Papp B→A at 2 h, 10 NM in [5] (setting [15]) came to 1.79 ×10⁻⁶ cm/s. Moreover, the “Perm. Mean Caco 2 A-B Perm (10e−6 cm/s)” value in [6] is reported as 0.1 10e−6 cm/s. The “Perm. Mean Caco 2 B-A Perm (10e−6 cm/s)” value in [6] is given as 1.79 10e−6 cm/s. Moreover, the half-life at 20 μM in [7] was 106 h. Further, the “pH 5.5 Stability (t1/2, 37 C.)” value in data set [7] is 4.5. In data set [9], the “CTGlo-ATS GMean LD50 (nM) 72 h NCIH1650.1” value worked out at 1960.398 nM. Besides, the “CTGlo-ATS GMean LD50 (nM) 72 h NCIH1568.1” value in data set [10] is listed as 45.485 nM.
Regarding `CC[C@H](O)[C@@H](C)[C@H]1O[C@@H]1C[C@@](C)(O)/C=C/C=C(\C)[C@H]1OC(=O)C[C@H](O)CC[C@@](C)(OC)[C@@H](OC(=O)N2CCN(C)CC2)/C=C/[C@@H]1C` [D2, (2S,3S,6S,7R,10R,E)-10-hydroxy-2-((R,2E,4E)-6-hydroxy-7-((2R,3R)-3-((2R,3S)-3-hydroxypentan-2-yl)oxiran-2-yl)-6-methylhepta-2,4-dien-2-yl)-7-methoxy-3,7-dimethyl-12-oxooxacyclododec-4-en-6-yl 4-methylpiperazine-1-carboxylate], the IC50 in [1] (setting [13]) came out at 15.5 nM. The 50% growth inhibitory concentration (GI50) came to 0.749 nM in [2]; 2.85 nM in data set [3]; 0.316 nM in data set [12]; 2.39 nM in data set [8]; 0.6 nM in [11]. In addition, the “Payload Rmin (%)” value is −72.706% in [2], −100.198% in data set [12] (unconjugated payload of the ADC) and −68.803% in [8]. For the same compound, the “CTGlo-AT S Mean Min-Response % 72 h THP1.1” value in data set [4] is listed as −100.218%. Besides, the Papp A→B at 2 h, 10 NM turned out to be 0.6 ×10⁻⁶ cm/s in data set [5] (setting [16]) and 0.624 ×10⁻⁶ cm/s in data set [5] (setting [14]). In [5] (setting [15]), the Papp B→A at 2 h, 10 NM amounted to 14.2 ×10⁻⁶ cm/s. For the same compound, in data set [7], the half-life at 20 μM is 96 h. Further, the “pH 5.5 Stability (t1/2, 37 C.)” value in [7] is listed as 4.
Turning to `CC[C@H](O)[C@@H](C)[C@H]1O[C@@H]1C[C@@](C)(O)/C=C/C=C(\C)[C@H]1OC(=O)C[C@H](O)CC[C@@](C)(OC(=O)N2CCNCC2)[C@@H](OC(C)=O)/C=C/[C@@H]1C` [D8, (2S,3S,6S,7R,10R,E)-6-acetoxy-10-hydroxy-2-((R,2E,4E)-6-hydroxy-7-((2R,3R)-3-((2R,3S)-3-hydroxypentan-2-yl)oxiran-2-yl)-6-methylhepta-2,4-dien-2-yl)-3,7-dimethyl-12-oxooxacyclododec-4-en-7-yl piperazine-1-carboxylate], the GI50 in [2] stood at 8.84 nM; in [3], 29.6 nM; in data set [4] it was 8.74 nM; in [8] it was 16.6 nM; in data set [9], 19.1 nM; in [10], 6.57 nM. In addition, the GI50 in [11] was 2.64 nM. The “Payload Rmin (%)” value in [2] is −34.052%; in data set [8], −68.37%. The “CTGlo-AT S Mean Min-Response % 72 h THP1.1” value in data set [4] was −99.92%. The Papp A→B at 2 h, 10 NM in data set [5] (setting [14]) was determined as 0.128 ×10⁻⁶ cm/s. For the same compound, the Papp B→A at 2 h, 10 NM in [5] (setting [15]) was determined as 2.03 ×10⁻⁶ cm/s. In addition, the “Perm. Mean Caco 2 A-B Perm (10e−6 cm/s)” value in [6] is listed as 0.128 10e−6 cm/s. Besides, the “Perm. Mean Caco 2 B-A Perm (10e−6 cm/s)” value in data set [6] was 2.027 10e−6 cm/s. Besides, the half-life at 20 μM in data set [7] was 84.6 h. In addition, the “CTGlo-ATS GMean LD50 (nM) 72 h NCIH1650.1” value in [9] was more than 10000.00 nM. The “CTGlo-ATS GMean LD50 (nM) 72 h NCIH1568.1” value in data set [10] turned out to be 68.125 nM.
For the compound `CC[C@H](O)[C@@H](C)[C@H]1O[C@@H]1C[C@H](C)/C=C/C=C(\C)[C@H]1OC(=O)C[C@H](O)CC[C@@](C)(OC(C)=O)[C@@H](OC(=O)N2CCNCC2)/C=C/[C@@H]1C` [D9], in data set [1], the IC50 worked out at 2.18 nM. Moreover, the “CTGlo-AT S Mean Min-Response % 72 h THP1.1” value in [4] is on record as −99.938%. Also, in data set [5] (setting [14]), the Papp A→B at 2 h, 10 NM was found to be 1.15 ×10⁻⁶ cm/s. In addition, the Papp B→A at 2 h, 10 NM in data set [5] (setting [15]) came out at 16.1 ×10⁻⁶ cm/s. In addition, the half-life at 20 μM in [7] is less than 24 h.
Take `C/C(=C\c1cc(F)cc(N2CCOCC2)c1)[C@H]1OC(=O)C[C@H](O)CC[C@H](C)[C@@H](OC(=O)N2CCN(C)CC2)/C=C/[C@@H]1C` [D17]: the IC50 in [1] (setting [13]) was 1.82 nM. Moreover, the “CTGlo-AT S Mean Min-Response % 72 h THP1.1” value in data set [4] is −99.033%. Besides, the figures for the Papp A→B at 2 h, 10 NM in data set [5] (setting [16]) and in data set [5] (setting [14]) were 20 ×10⁻⁶ cm/s and 20.2 ×10⁻⁶ cm/s, respectively. Moreover, the Papp B→A at 2 h, 10 NM in data set [5] (setting [15]) was 18.2 ×10⁻⁶ cm/s. Moreover, in [7], the “pH 5.5 Stability (t1/2, 37 C.)” value is on record as 7.
